Data set [1] can be described thus: Drug uptake in human SH-SY5Y cells at 1 uM after 90 mins by confocal fluorescence microscopy analysis. The conditions noted are these: 1.5 h. It is filed as ADME, cell-based.
Data set [2] can be described thus: Drug uptake in human SH-SY5Y cells at 10 uM after 90 mins by confocal fluorescence microscopy analysis. It is filed as ADME, cell-based. The conditions noted are these: 1.5 h.
Data set [3] has as its target MDR-1 (P-glycoprotein, ABCB1) (Homo sapiens, UniProt P08183). The experiment in a line: Inhibition of MDR-1 (unknown origin) expressed in human Caco2 cells using Calcein-AM at 50 uM preincubated for 30 mins by fluorescence based PDSP assay relative to control. It is filed as cell-based. The conditions noted are these: Caco-2 cells expressing MDR-1, probe Calcein-AM.

Sequence of MDR-1 (P-glycoprotein, ABCB1) (P08183 whole entry): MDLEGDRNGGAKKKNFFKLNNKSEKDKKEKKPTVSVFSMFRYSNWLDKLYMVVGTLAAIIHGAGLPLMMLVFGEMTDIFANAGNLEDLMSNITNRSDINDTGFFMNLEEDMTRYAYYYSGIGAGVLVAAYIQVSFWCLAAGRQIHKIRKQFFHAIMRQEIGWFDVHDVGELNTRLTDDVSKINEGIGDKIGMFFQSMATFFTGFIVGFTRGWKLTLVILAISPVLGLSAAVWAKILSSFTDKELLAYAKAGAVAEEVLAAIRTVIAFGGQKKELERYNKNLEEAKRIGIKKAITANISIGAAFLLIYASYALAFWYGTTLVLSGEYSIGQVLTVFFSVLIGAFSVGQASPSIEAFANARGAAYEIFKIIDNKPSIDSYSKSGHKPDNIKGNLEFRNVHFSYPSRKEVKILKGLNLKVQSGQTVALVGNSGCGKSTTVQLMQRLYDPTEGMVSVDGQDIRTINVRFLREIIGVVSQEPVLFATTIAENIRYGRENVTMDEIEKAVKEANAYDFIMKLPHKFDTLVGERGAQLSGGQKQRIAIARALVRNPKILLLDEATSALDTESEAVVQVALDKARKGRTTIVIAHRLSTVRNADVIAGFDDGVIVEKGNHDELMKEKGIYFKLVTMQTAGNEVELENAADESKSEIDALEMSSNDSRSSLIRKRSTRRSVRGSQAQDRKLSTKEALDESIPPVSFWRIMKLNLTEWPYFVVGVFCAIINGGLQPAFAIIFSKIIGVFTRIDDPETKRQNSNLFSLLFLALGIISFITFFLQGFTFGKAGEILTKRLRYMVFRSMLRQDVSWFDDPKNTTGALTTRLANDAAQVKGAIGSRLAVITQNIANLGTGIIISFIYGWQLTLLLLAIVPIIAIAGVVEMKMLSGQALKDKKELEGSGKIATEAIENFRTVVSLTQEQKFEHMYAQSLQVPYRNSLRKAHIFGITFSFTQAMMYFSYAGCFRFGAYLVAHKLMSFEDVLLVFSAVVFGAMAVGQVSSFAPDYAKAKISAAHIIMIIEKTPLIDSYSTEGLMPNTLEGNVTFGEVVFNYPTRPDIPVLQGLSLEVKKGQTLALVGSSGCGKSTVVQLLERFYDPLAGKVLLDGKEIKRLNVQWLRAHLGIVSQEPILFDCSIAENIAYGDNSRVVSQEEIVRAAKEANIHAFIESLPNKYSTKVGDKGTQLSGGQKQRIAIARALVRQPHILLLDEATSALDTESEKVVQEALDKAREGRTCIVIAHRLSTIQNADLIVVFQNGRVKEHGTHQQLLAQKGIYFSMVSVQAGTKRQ

As to `CCOC(=O)C1=C(C)NC(C)=C(C(=O)NCCCCCCNS(=O)(=O)c2ccc(-c3c4ccc(N(CC)CC)cc4[o+]c4cc(N(CC)CC)ccc34)c(S(=O)(=O)[O-])c2)C1c1c(-c2ccccc2)noc1C` (stereo not drawn), in data set [1], the Drug uptake result was “Active”.

By inhibition is commonly meant the relative decrease from the control value, in per cent. `CCOC(=O)C1=C(C)NC(C)=C(C(=O)NCCCCCCCCNS(=O)(=O)c2cccc3c(N(C)C)cccc23)C1c1c(-c2ccccc2)noc1C` (stereo not drawn): the Drug uptake result in data set [2] is on record as “Active”. Also, the inhibition at 30 min, 50 µM in data set [3] was 63%.

(Values after ChEMBL document CHEMBL3098092, “Fluorescent probes of the isoxazole-dihydropyridine scaffold: MDR-1 binding and homology model” (Bioorg Med Chem Lett, 2014).)
